Measurements taken from ChEMBL document CHEMBL1154969, “LXXLL peptide mimetics as inhibitors of the interaction of vitamin D receptor with coactivators” (Bioorg Med Chem Lett, 2010).

Assays:
[1] = target: T1, Estrogen receptor (Homo sapiens, UniProt P03372); test: Inhibition of ER
T1 sequence (P03372 whole entry): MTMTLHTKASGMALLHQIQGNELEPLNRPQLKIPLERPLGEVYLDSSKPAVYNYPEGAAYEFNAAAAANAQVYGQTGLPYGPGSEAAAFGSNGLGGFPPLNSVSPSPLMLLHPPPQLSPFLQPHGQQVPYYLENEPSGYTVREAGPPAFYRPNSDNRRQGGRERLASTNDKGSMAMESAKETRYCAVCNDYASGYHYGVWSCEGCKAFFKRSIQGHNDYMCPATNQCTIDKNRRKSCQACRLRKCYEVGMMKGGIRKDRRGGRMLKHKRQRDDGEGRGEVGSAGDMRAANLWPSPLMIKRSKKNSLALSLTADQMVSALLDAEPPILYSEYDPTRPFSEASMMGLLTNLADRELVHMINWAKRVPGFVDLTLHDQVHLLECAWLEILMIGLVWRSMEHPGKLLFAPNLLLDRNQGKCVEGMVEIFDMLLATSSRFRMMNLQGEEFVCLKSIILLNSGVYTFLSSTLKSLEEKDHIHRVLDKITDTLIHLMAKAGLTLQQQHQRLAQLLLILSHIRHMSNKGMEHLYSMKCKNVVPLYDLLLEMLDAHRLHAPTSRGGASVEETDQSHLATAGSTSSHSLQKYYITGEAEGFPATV

[2] = target: T2, Androgen receptor (Homo sapiens, UniProt P10275); test: Inhibition of AR
T2 sequence (P10275 whole entry): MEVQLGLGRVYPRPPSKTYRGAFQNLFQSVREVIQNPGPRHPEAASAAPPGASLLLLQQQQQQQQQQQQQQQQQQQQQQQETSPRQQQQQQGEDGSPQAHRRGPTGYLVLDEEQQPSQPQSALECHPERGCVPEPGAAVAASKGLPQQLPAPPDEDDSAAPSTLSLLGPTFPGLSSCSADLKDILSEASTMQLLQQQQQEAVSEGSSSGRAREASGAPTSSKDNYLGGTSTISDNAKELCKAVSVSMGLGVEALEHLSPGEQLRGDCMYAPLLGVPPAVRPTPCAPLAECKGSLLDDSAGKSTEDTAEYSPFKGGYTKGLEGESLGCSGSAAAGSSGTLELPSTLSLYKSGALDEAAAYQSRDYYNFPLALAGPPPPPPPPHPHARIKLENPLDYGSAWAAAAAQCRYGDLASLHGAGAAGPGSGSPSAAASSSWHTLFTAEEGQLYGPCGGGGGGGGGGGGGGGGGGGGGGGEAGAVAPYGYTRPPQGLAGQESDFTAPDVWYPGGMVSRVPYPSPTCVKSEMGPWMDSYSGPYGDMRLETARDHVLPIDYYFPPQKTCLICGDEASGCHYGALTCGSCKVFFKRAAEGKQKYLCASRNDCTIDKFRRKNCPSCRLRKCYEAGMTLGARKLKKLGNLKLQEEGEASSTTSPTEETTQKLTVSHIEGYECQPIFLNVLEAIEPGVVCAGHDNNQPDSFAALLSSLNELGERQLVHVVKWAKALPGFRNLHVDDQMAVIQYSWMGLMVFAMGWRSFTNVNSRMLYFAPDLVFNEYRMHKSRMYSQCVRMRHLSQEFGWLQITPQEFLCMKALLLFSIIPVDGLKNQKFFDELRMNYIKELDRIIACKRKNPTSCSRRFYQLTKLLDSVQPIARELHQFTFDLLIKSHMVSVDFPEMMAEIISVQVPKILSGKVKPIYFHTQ

[3] = target: T3, Vitamin D3 receptor (Homo sapiens, UniProt P11473); test: Displacement of 1,25-dihydroxyvitamin D3 from GST-tagged VDR ligand binding domain assessed as inhibition of interaction with coactivator proteins by TR-FRET assay
T3 sequence (P11473 whole entry): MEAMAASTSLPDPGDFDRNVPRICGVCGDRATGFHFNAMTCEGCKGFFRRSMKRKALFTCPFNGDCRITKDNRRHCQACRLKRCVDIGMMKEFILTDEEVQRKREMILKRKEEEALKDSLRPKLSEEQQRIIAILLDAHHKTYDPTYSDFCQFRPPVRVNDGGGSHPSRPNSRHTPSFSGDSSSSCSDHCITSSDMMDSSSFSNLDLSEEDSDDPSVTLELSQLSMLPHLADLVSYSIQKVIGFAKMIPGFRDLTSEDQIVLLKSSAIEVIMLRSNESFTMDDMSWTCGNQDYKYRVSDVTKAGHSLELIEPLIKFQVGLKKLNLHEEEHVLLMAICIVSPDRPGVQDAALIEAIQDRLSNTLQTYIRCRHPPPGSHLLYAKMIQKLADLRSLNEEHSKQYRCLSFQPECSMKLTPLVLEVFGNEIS

[4] = target: T4, Vitamin D3 receptor (Homo sapiens) (UniProt P11473); test: Displacement of 1,25-dihydroxyvitamin D3 from GST-tagged VDR ligand binding domain assessed as inhibition of interaction with coactivator proteins at 30 uM by TR-FRET assay
T4 sequence (whole entry): T3 sequence (P11473 whole entry)

[5] = target: T4, Vitamin D3 receptor (Homo sapiens); test: Antagonist activity at human recombinant VDR LBD expressed in HEK293 cells assessed as inhibition of 3 nM 1,25-(OH)2D3-induced transcriptional activation at 10 uM after 16 to 18 hrs by GAL4-dependent luciferase reporter gene assay; assay type: functional, cell-based
[6] = target: T4, Vitamin D3 receptor (Homo sapiens); test: Displacement of 1,25-dihydroxyvitamin D3 from GST-tagged VDR ligand binding domain assessed as inhibition of interaction with coactivator proteins at 10 uM by TR-FRET assay
[7] = target: T4, Vitamin D3 receptor (Homo sapiens); test: Antagonist activity at human recombinant VDR LBD expressed in HEK293 cells assessed as inhibition of 300 nM 1,25-(OH)2D3-induced transcriptional activation at 10 uM after 16 to 18 hrs by GAL4-dependent luciferase reporter gene assay; assay type: functional, cell-based
[8] = target: T3, Vitamin D3 receptor; test: (§1) Antagonist activity at human recombinant VDR LBD expressed in HEK293 cells assessed as inhibition of 300 nM 1,25-(OH)2D3-induced transcriptional activation after 16 to 18 hrs by GAL4-dependent luciferase reporter gene assay; assay type: functional, cell-based
[9] = target: T3, Vitamin D3 receptor; test: Antagonist activity at human recombinant VDR LBD expressed in HEK293 cells assessed as inhibition of 3 nM 1,25-(OH)2D3-induced transcriptional activation after 16 to 18 hrs by GAL4-dependent luciferase reporter gene assay; assay type: functional, cell-based
[10] = target: T5, Estrogen receptor beta (Homo sapiens, UniProt Q92731); test: Antagonist activity at human recombinant ERbeta LBD expressed in HEK293 cells assessed as inhibition of 0.3 nM estradiol-induced transcriptional activation at 30 uM after 16 to 18 hrs by GAL4-dependent luciferase reporter gene assay; assay type: functional, cell-based
T5 sequence (Q92731 whole entry, the tested form may be a part): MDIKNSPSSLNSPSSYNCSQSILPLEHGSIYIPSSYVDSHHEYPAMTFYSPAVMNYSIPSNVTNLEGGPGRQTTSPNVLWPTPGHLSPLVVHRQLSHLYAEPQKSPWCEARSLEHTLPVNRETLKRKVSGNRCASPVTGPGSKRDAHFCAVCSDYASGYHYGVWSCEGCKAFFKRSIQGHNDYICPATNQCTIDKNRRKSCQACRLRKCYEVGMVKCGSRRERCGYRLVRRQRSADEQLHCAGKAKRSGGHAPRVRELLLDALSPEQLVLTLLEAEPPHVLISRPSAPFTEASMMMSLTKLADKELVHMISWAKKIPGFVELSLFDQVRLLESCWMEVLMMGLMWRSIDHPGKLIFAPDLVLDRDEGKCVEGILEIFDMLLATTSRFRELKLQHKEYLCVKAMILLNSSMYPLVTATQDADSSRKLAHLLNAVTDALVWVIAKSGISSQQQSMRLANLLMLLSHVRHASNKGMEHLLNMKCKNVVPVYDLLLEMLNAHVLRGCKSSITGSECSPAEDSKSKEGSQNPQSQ

[11] = target: T4, Vitamin D3 receptor (Homo sapiens); test: Antagonist activity at human recombinant VDR LBD expressed in HEK293 cells assessed as inhibition of 3 nM 1,25-(OH)2D3-induced transcriptional activation at 30 uM after 16 to 18 hrs by GAL4-dependent luciferase reporter gene assay; assay type: functional, cell-based
[12] = target: T4, Vitamin D3 receptor (Homo sapiens); test: Antagonist activity at human recombinant VDR LBD expressed in HEK293 cells assessed as inhibition of 300 nM 1,25-(OH)2D3-induced transcriptional activation at 30 uM after 16 to 18 hrs by GAL4-dependent luciferase reporter gene assay; assay type: functional, cell-based
[13] = target: T5, Estrogen receptor beta; test: Antagonist activity at human recombinant ERbeta LBD expressed in HEK293 cells assessed as inhibition of 0.3 nM estradiol-induced transcriptional activation after 16 to 18 hrs by GAL4-dependent luciferase reporter gene assay; assay type: functional, cell-based
[14] = target: T4, Vitamin D3 receptor (Homo sapiens); test: as §1; assay type: functional, cell-based
[15] = target: T1, Estrogen receptor; test: Antagonist activity at human recombinant ERalpha LBD expressed in HEK293 cells assessed as inhibition of 0.3 nM estradiol-induced transcriptional activation after 16 to 18 hrs by GAL4-dependent luciferase reporter gene assay; assay type: functional, cell-based
[16] = target: T6, Estrogen receptor (Homo sapiens) (UniProt P03372); details: HEK293, 30 uM
T6 sequence (whole entry): T1 sequence (P03372 whole entry)
Description: Antagonist activity at human recombinant ERalpha LBD expressed in HEK293 cells assessed as inhibition of 0.3 nM estradiol-induced transcriptional activation at 30 uM after 16 to 18 hrs by GAL4-dependent luciferase reporter gene assay

A Ki [1] of 4.2 µM was found for `CC(C)Cc1cc(O)c(=O)n(Cc2ccc3ccccc3c2)c1-c1ccnc(Cc2ccccc2)c1` in this work.

A Ki [2] of 1.5 µM was found for `CC(C)CNc1cc(CCc2cccc3ccccc23)nc(NCc2cccc3ccccc23)n1` in this work.

An IC50 [3] of 28 µM was found for `CC(C)CCN1Cc2cc(CC(C)C)c(NCCN)cc2N[C@@H](CC(C)C)C1=O` in this work.

An IC50 [3] of 13 µM was found for `CC(C)CCN1Cc2cc(CC(C)C)c(NCCNC(=O)OC(C)(C)C)cc2N[C@@H](CC(C)C)C1=O` in this work.

An IC50 [3] greater than 30 µM and an inhibition [4] of 46% were found for `CC(C)CCN1Cc2cc(CC(C)C)c(NC(=N)N)cc2N[C@@H](CC(C)C)C1=O` in this work.

An inhibition [5] of 98%, an inhibition [6] of 87% and an inhibition [7] of 66% were found for `C=C1/C(=C\C=C2/CCC[C@]3(C)[C@@H]([C@H](C)C[C@H]4C[C@@](C)(O)C(=O)N4CCc4ccccc4)CC[C@@H]23)C[C@@H](O)C[C@@H]1O` in this work. The IC50 [8] was 3.3 µM and the IC50 [9] was 0.22 µM.

An IC50 [3] greater than 30 µM and an inhibition [4] of 43% were found for `CC(=O)NCCNc1cc2c(cc1CC(C)C)CN(CCC(C)C)C(=O)[C@H](CC(C)C)N2` in this work.

An IC50 [3] of 30 µM, an inhibition [10] of 18% and an inhibition [11] of 47% were found for `CC(C)CCN1Cc2cc(CC(C)C)c(N)cc2N[C@@H](CC(C)C)C1=O` in this work. For the same compound, the inhibition [12] was 53%, the inhibition [4] was 48% and the IC50 [13] was greater than 30 µM. It also gave an IC50 [8] of 30 µM, an inhibition [14] of 8% and an IC50 [9] of 30 µM. For the same compound, the IC50 [15] was greater than 30 µM.

An IC50 [3] of 20 µM, an inhibition [10] of 56% and an inhibition [11] of 68% were found for `CC(C)=Cc1cc2c(cc1N)N[C@@H](CC(C)C)C(=O)N(CCC(C)C)C2` in this work. The inhibition [12] was 59%, the inhibition [4] was 76% and the IC50 [13] was 22 µM. The IC50 [8] was 23 µM, the IC50 [9] was 17 µM and the IC50 [15] was greater than 30 µM. For the same compound, the inhibition [16] was 8%.

A Ki [1] of 29 µM was found for `CC(C)CNc1cc(CC(C)C)nc(NCC(C)C)n1` in this work.
